Columns and labels:
[1] = test system: HepG2 cells; experiment: Pharmacokinetic study of baicalin in HepG2 cells (intracellular concentrations by UPLC-MS/MS); format: in vitro ADME, human; settings: for AUC0–t increase compared with the control group: HepG2 cells
Protocol: (§1) The samples were quantified by UPLC-MS/MS, which consisted of a Dionex Ultimate 3000 UPLC system (Thermo Fisher Scientific, Waltham, MA, USA) and a triple quadrupole tandem mass spectrometer (Thermo Fisher Scientific, Waltham, MA, USA). The mass spectrometry was performed using an ESI ion source and in positive ion mode. The chromatograms are shown in Figure S1 of the Supplementary Materials. The samples were analyzed by a Waters XBridge BEH C18 column (2.1 × 100 mm). Mobile phase A consists of acetonitrile, while mobile phase B consists of water containing 0.1% formic acid. The elution program was as follows: B was initially 90%, 0 to 9 min B decreased from 90% to 27%, and 9.1 min to 12 min increased from 27% to 90% B. The flow rate of the mobile phase was 0.3 mL/min, the temperature of the automatic injector was 5 °C, and the injection volume was 10 μL. The m/z for BG and B6G was 447 → 271, for baicalein m/z 271 → 123, and for genistein (IS) m/z 271 → 153. Other mass spectrometry parameters included sheath gas (Arb) pressure, 20 psi, and auxiliary gas (Arb) pressure, 2 psi; source voltage, 4.8 KV, and capillary voltage, 2.5 KV; and ion-transfer-tube temperature, 375 °C, and atomization temperature, 275 °C.
(§2) HepG2 cells were cultured at a density of 1×10^5 cells/mL in 12-well plates for 24 h to facilitate the conduct of cellular pharmacokinetic experiments. The old medium was aspirated and discarded, the wells were rinsed twice with PBS, and 1 mL of 100 μM baicalin and baicalin + PEG400 (0.25%, 0.5%, and 1%) was added into 12-well plates to initiate the timer. The culture was terminated after 0.25 h, 0.5 h, 1 h, 2 h, 4 h, 6 h, 8 h, 10 h, 12 h, and 24 h, respectively. Upon reaching the designated time for administration, the cell culture medium was removed, and the wells were washed with 1 mL of cold PBS solution. Subsequently, 240 μL of ultra-pure water were added to each well, and the sample was stored at −80 °C until analysis. The sample was subjected to sonication in an ice bath for 10 min in order to lyse the cells, thereby enabling the determination of the accumulated drug concentration within the cells. Subsequently, 20 μL of the cell lysate was collected, and the protein concentration was quantified using a BCA kit for normalization.
(§3) After repeated freeze-thaw lysis, 100 μL of cell samples were taken, and 300 μL of 0.2% formic acid acetonitrile (containing 200 ng/mL genistein) were added to the vortex for 10 min to precipitate proteins and then centrifuged at 14,000 r/min for 10 min. Then the supernatant was blown dry under nitrogen at 40 °C and then reconstituted with 200 μL of methanol and centrifuged at 14,000 rpm for 10 min. The supernatant was subjected to UPLC-MS/MS analysis.

[2] = as above; format: in vitro ADME, human; settings: human, intracellular; for AUC(0-t) at 100 μM / Cmax at 100 μM / half-life at 100 μM: HepG2 cells
Protocol: as §1, §2, §3

[3] = HepG2 cells given 100 μM baicalin + H PEG400 (1%)
[4] = HepG2 cells given 100 μM baicalin + L PEG400 (0.25%)
[5] = HepG2 cells given 100 μM baicalin + M PEG400 (0.5%)
[6] = HepG2 cells given 100 μM baicalin alone (group BG, control)

Tmax ([1]; human) [h]	t1/2 ([1]; human) [h]	SMILES	AUC0–t increase compared with the control group ([1]; baicalin + high PEG400 (1%) vs baicalin alone) [fold]	AUC0–t increase compared with the control group ([1]; baicalin + low PEG400 (0.25%) vs baicalin alone) [fold]	AUC0–t increase compared with the control group ([1]; baicalin + medium PEG400 (0.5%) vs baicalin alone) [fold]	AUC(0-t) at 100 μM [2, 3] [ng·h/mL]	Cmax at 100 μM [2, 3] [ng/mL]	half-life at 100 μM [2, 3] [h]	AUC(0-t) at 100 μM [2, 4] [ng·h/mL]	Cmax at 100 μM [2, 4] [ng/mL]	half-life at 100 μM [2, 4] [h]	AUC(0-t) at 100 μM [2, 5] [ng·h/mL]	Cmax at 100 μM [2, 5] [ng/mL]	half-life at 100 μM [2, 5] [h]	Cmax at 100 μM [2, 6] [ng/mL]	half-life at 100 μM [2, 6] [h]	AUC(0-t) at 100 μM ([2]; HepG2 cells given 100 μM baicalin alone (group BG, control), 0.25-24 h) [ng·h/mL]	Tmax at 100 μM [2, 6] [h]
6.00	5.19 ± 2.37	O=C(O)[C@H]1O[C@@H](Oc2c(O)cc3oc(-c4ccccc4)cc(=O)c3c2O)[C@H](O)[C@@H](O)[C@@H]1O [B6G, Baicalein-6-O-β-D-glucuronide]	–	–	–	–	–	–	–	–	–	–	–	–	–	–	–	–
–	–	O=c1cc(-c2ccccc2)oc2cc(O)c(O)c(O)c12 [B, baicalein]	1.27	1.26	1.23	5640 ± 70	510 ± 10	6.43 ± 1.85	5610 ± 90	550 ± 70	3.73 ± 0.54	5480 ± 118	530 ± 60	9.4 ± 8.73	350 ± 120	17.6 ± 7.99	4450 ± 60	6

From paper PMC11206988, “Study on the Effect of Pharmaceutical Excipient PEG400 on the Pharmacokinetics of Baicalin in Cells Based on MRP2, MRP3, and BCRP Efflux Transporters” (Pharmaceutics, 2024)
